{
  "source": "patent US9107844B2",
  "about": "“Topical skin treating compositions” (STIEFEL LABORATORIES INC., priority 2006, dated 2015)",
  "assay_type_in_all_cases": "physicochemical",
  "key": {"[1]": {"experiment": "Stability of combined active ingredients, Example 6 composition (benzoyl peroxide/tazarotene/clindamycin)", "conditions": "0.096% tazarotene, […] clindamycin, Initial […], 2 weeks", "method": "Measurements were taken at the end of 2 weeks. The composition was stored at 2 different temperatures, i.e., 25° C. and 30° C. […]"}, "[2]": {"experiment": "Stability of active ingredients, Example 9 composition (benzoyl peroxide/tazarotene)", "conditions": "composition 5.18% BPO, 0.099% tazarotene, Initial 5.18%", "text": "Tables 9 and 10 show the stability of the active ingredients in a composition containing 5.18% of benzoyl peroxide and 0.099% of tazarotene.\nA 2-week and 6-month analysis of the composition was undertaken following the procedure of Example 2."}, "[3]": {"experiment": "Stability of active ingredients, Example 10 composition (benzoyl peroxide/clindamycin)", "conditions": "composition 4.84% BPO, 1.08% clindamycin, Initial 4.84%", "text": "A 2-week analysis and 6-month analysis of the composition was undertaken following the procedure of Example 2."}},
  "data": [
    {"compound": "O=C(OOC(=O)c1ccccc1)c1ccccc1", "note": "[Benzoyl Peroxide]", "values": [
      {"measurement": "Benzoyl Peroxide (BPO) (as % w/w)", "setting": "[1]; 25° C.", "result": 1.06, "unit": "% w/w"},
      {"measurement": "Benzoyl Peroxide (BPO) (as % w/w)", "setting": "[1]; 30° C.", "result": 1.06, "unit": "% w/w"},
      {"measurement": "Benzoyl Peroxide (BPO) (as % w/w)", "setting": "[2]; 6° C., 6 months", "result": 5.2, "unit": "% w/w"},
      {"measurement": "Benzoyl Peroxide (BPO) (as % w/w)", "setting": "[2]; 25° C., 2 weeks", "result": 5.21, "unit": "% w/w"},
      {"measurement": "Benzoyl Peroxide (BPO) (as % w/w)", "setting": "[2]; 25° C., 6 months", "result": 5.14, "unit": "% w/w"},
      {"measurement": "Benzoyl Peroxide (BPO) (as % w/w)", "setting": "[3]; 6° C., 2 weeks", "result": 5.53, "unit": "% w/w"},
      {"measurement": "Benzoyl Peroxide (BPO) (as % w/w)", "setting": "[3]; 6° C., 6 months", "result": 4.81, "unit": "% w/w"},
      {"measurement": "Benzoyl Peroxide (BPO) (as % w/w)", "setting": "[3]; 25° C., 2 weeks", "result": 5.01, "unit": "% w/w"},
      {"measurement": "Benzoyl Peroxide (BPO) (as % w/w)", "setting": "[3]; 25° C., 6 months", "result": 4.85, "unit": "% w/w"}
    ]}
  ]
}
